Measured values published in patent US7115574B2, “System and method for support legacy operating system booting in a legacy-free system” (priority 2001, dated 2006).
Where “and” joins values, the source holds several entries; their conditions need not be identical. Equal values may be shown once.

Experiments:
Format in all cases: cell-based
[1] = system: N9 clone of murine microglial cells; assay: TNF-α, IL-6 and NO2− production by LPS+IFN-γ activated microglia; conditions: for concentration most effective at inhibiting cytokine formation: LPS+IFN-γ stimulated microglia, 1-100 μM tested
Procedure: See Delgado, R., Carlin, A., Alraghi, L., Demitri, M., Meda, L., Galimberti, D., Pierluigi, B., Lipton, J. M., Catania, A., Melanocortin Peptides Inhibit Production of Proinflammatory Cytokines and Nitric Oxide by Activated Microglia, 63 J. of Leukocyte Biol. 740 (1998). […] The N9 clone of murine microglial cells was obtained by immortalization of embryonic brain cultures with the 3RV retrovirus carrying an activated v-myconcogene. N9 cells were cultured in T-75-cm^2 culture flasks (Coming, Cambridge, Mass.) and maintained at 37° C. in a humidified incubator under 5% CO2 atmosphere in RPMI 1640 supplemented with 2 mM L-glutamine, 50 U/mL penicillin G, 50 μg/mL streptomycin sulfate (GIBCO-BBL, Paisley, UK), and 10% heat-inactivated fetal bovine serum (FBS, Hyclone Lab, Inc., Logan, Utah) until experiments were performed. Cells were used between the first and the tenth passage.
Sub-confluent microglial cells were washed twice with phosphate-buffered saline (PBS) and incubated with trypsin 0.025% and ethylenediaminetetraacetate (EDTA) 0.02% without calcium and magnesium for 3 min. at 37° C. to detach the cells from the culture flask. Cells were then resuspended in medium and incubated in 24-well tissue-culture plates at a concentration of 2×10^5 cells/mL for 16 h in a humidified incubator (37° C., 5% CO2). Growth medium was removed and cell monolayers were stimulated with 10 ng/mL lipopolysaccharide (LPS, from Escherichia coli 055:B5, Sigma Chemical Co., St. Louis, Mo.) plus 1 U/ml, murine IFN-γ (Sigma). […] Although production of TNF-α and NO was reduced to even much lower concentrations of the peptides, concentrations in the micromolar range had the most profound and consistent inhibitory effects. […] Cell-free supernatants were harvested after 24 h incubation and assayed for TNF-α, IL-6 and NO2. Viability of cells was assessed by trypan blue exclusion for each experimental condition: it was consistently >98%. Dexamethasone (Sigma) and N-monomethyl-L-arginine (L-NMMA: 100 μM, Cayman Chemical, Ann Arbor, Mich.) were used as positive controls for TNF-α and NO inhibition, respectively. Tests were repeated in at least three independent experiments and assays were performed in triplicate.
TNF-α bioactivity was measured in supernatants of cell cultures by standard cytotoxicity assay using L929 cells and recombinant human TNF-α (Sigma) as standard. The detection limit of the bioassay was 20 pg/mL. IL-6 was measured using a commercial murine enzyme-linked immunosorbent assay (ELISA: RPN 2714, Amersham, Little Chalfont, UK).
NO is rapidly oxidized to nitrite in culture medium, and nitrite (NO2^−) concentration is an indicator of NO production. Cell-free culture supernatants were mixed with equal amounts of Griess reagent (1% sulfanilamide, 0.1% naphtylethylenediamide in 2.5% phosphoric acid) in wells of 96-well ELISA plates. Samples were incubated at room temperature for 10 min and absorbance was measured at 540 nm with the use of a microplate reader. Nitrite […] concentrations were calculated using a sodium nitrite standard curve.
Effects of melanocortin peptides on cytokine and NO production were evaluated by repeated measures analysis of variance followed by Dunnet's test for specific comparisons. Probability values less than 0.05 were considered significant.

[2] = system: N9 clone of murine microglial cells; assay: cAMP accumulation in N9 microglia; conditions: for cAMP accumulation: resting cells and cells co-incubated with LPS+IFN-γ; for concentration of strongest effect on cAMP accumulation: resting microglia, 1, 10, 50 μM tested
Procedure: cAMP accumulation in N9 cells was measured as previously described. […] Reactions were stopped after 3 min by aspirating supernatants, immediately adding 1 mL ethanol at −20° C. and freezing. cAMP content in the ethanol-soluble fraction was measured using an enzyme immunoassay kit (Amersham).

[3] = system: N9 clone of murine microglial cells; assay: Northern blot of TNF-α and iNOS mRNA in activated microglia; conditions: peptide prior to LPS and IFN-γ
Procedure: Total cellular RNA was extracted from 10^6 adherent microglial cells plated in six-well tissue culture plates (Corning). Electrophoresis of RNA samples (10 μg/lane) was performed in 1% agarose/2.2 M formaldehyde gels and the gels subsequently blotted onto nylon filters by capillary action and baked for 2 h before prehybridization. The cDNA fragments encoding murine TNF-α and mouse macrophage iNOS were ^32P-labeled using the Ready-To-Go DNA Labeling Kit (Pharmacia, Uppsala, Sweden) before hybridization of nylon filters and autoradiography. Blots were subsequently rehybridized with human glyceraldehyde-3-phosphate dehydrogenase (G-3-PDH) cDNA probe as an internal control (Clontech Laboratories, Inc., Palo Alto, Calif.).

[4] = system: C. albicans; assay: Horse serum-induced germ tube formation (germination) of C. albicans; conditions: 10^−6M, 60 minutes at 37° C. after horse serum induction
Procedure: C. albicans from stationary phase cultures were washed twice with distilled water and suspended in HBSS to a final concentration of 2×10^6/ml. Hyphal growth was induced by addition of 10% inactivated horse serum (GIBCO/BRL, Great Britain) to yeast incubated for 45 minutes at 37° C. with continuous shaking. Horse serum was removed by washing cells twice with HBSS and incubation was continued for 60 minutes at 37° C. in the presence of α-MSH(1-13) (SEQ ID NO: 3), (6-13) (SEQ ID NO: 2) or (11-13) (SEQ ID NO: 1) at a concentration of 10^−6M with continuous shaking. The percentage of filamentous cells was evaluated under a light microscope with the aid of hemocytometer. Experiments were run in triplicate and at least 200 cells were scored. Photomicrographs were taken with a MC100 camera attached to an Axioskop Zeiss microscope.

[5] = system: C. albicans killing by human neutrophils; assay: C. albicans killing by human neutrophils; conditions: 10^−12M to 10^−4M; 2 hours at 37° C.; p<0.01
Procedure: Venous blood (20 ml) from health volunteers was anticoagulated with heparin. Neutrophils were isolated using dextran sedimentation and Ficoll-Hypaque (Sigma Chemical Co., St. Louis, […]., USA) centrifugation. Erythrocytes were lysed via hypotonic shock. Neutrophils represented at least 97% of the cell suspension. Cell viability, estimated by trypan blue exclusion, was >98%. Neutrophils were suspended to a final concentration in HBSS.
C. albicans (1×10^6) were opsonized with human AB serum in a shaking water bath for 30 minutes at 37° C. […] After incubation, the culture tubes were placed on ice to stop growth and extracellular organisms were washed twice with centrifugation at 1000×g at 4° C. A 2.5% sodium desoxycholoate solution was added to obtain a suspension of 10^6 cells/ml. Two 1/100 serial dilutions in HBSS were made to obtain a final suspension of 100 cells/ml. Aliquots of 1 ml were dispensed on blood agar plates and incubated for 48 hours at 37° C. Colony forming units (CFUs) were counted at the end of the incubation period. Experiments were run in triplicate and repeated using blood from 5 different donors.

[6] = microglia stimulated with LPS+IFN-γ for 24 hr, micromolar concentrations

Substance | concentration most effective at inhibiting cytokine formation [1] [µM] | cAMP accumulation [2] | concentration of strongest effect on cAMP accumulation [2] [µM] | transcription levels (mRNA) for TNF-α and iNOS [3] | reduction in the number of filamentous cells / inhibition of germ tube formation [4] | reduction in the number of filamentous cells / inhibition of germ tube formation ([4]; listed as tripeptide) | killing of C. albicans by human neutrophils [5] | reduction of production of IL-6 [1, 6] | reduction of production of NO2^− [1, 6] | reduction of production of TNF-α [1, 6] | cAMP accumulation in conjunction with LPS and IFN-γ ([2]; peptide 10 μM with LPS+IFN-γ, forskolin 100 μM as comparison)
Ac-Lys-Pro-Val-NH2 [α-MSH(11-13)] | 1 | increased cAMP accumulation | 50 | decrease in transcription levels | approximately 56% | 54-58% | enhanced the killing |  |  |  | 
SYSMEHFRWGKPV [α-MSH(1-13)] | 10 | increased cAMP accumulation | 10 | decrease in transcription levels |  |  | enhanced the killing | 31% and 50% | 42% and 40% | 43% and 45% | more effective of the two
